The results in this text go back to ChEMBL document CHEMBL1152995, “Combined real-time PCR and pyrosequencing strategy for objective, sensitive, specific, and high-throughput identification of reduced susceptibility to penicillins in Neisseria meningitidis” (2008).

Converted amounts (≈) assume the structure as drawn.

Experiment [1] deals with Neisseria meningitidis. The experiment can be described thus: Antibacterial activity against penicillin-intermediate resistant Neisseria meningitidis clinical isolates harbouring altered penA gene after 24 hrs by Etest method. Type of experiment: functional.
The test system of experiment [2] is Neisseria meningitidis. The experiment can be described thus: Antibacterial activity against penicillin-intermediate resistant Neisseria meningitidis after 24 hrs by Etest method. The experiment is classed as functional.

For `CC1(C)S[C@@H]2[C@H](NC(=O)[C@H](N)c3ccccc3)C(=O)N2[C@H]1C(=O)O` [AMPICILLIN], the MIC in the experiment on Neisseria meningitidis [1] is greater than 0.064 µg/mL.

Consider `CO/N=C(\C(=O)N[C@@H]1C(=O)N2C(C(=O)O)=C(COC(C)=O)CS[C@H]12)c1csc(N)n1` [CEFOTAXIME], for which, in the experiment on Neisseria meningitidis [1], the minimal inhibitory concentration (MIC) was no more than 0.012 µg/mL.

As for `CC1(C)S[C@@H]2[C@H](NC(=O)Cc3ccccc3)C(=O)N2[C@H]1C(=O)O` [PENICILLIN G], the minimal inhibitory concentration (MIC) with Neisseria meningitidis [2] is 0.064 µg/mL (≈ 0.191 µM); in the experiment on Neisseria meningitidis [1], greater than 0.094 µg/mL.

A word on the MIC: it is the smallest concentration in the dilution series that meets the test's criterion for growth inhibition. Lower therefore signals inhibition by little substance.
